Here are results for five molecules from ChEMBL document CHEMBL5126603, “Discovery of Clinical Candidate CHF-6366: A Novel Super-soft Dual Pharmacology Muscarinic Antagonist and β2 Agonist (MABA) for the Inhaled Treatment of Respiratory Diseases” (J Med Chem, 2022).

Broadly, the half-life is the time in which the quantity being followed falls by half. One may read the IC50 as the concentration needed to halve the response being measured. The inhibition in vivo is the drop in the measured response relative to a control, in per cent.

Series [1] in a line: Metabolic stability in human plasma assessed as half life at 5 uM measured upto 120 mins by LC-MS/MS analysis. The format is ADME, cell-free.
Series [2] can be described thus: Metabolic stability in rat plasma assessed as half life at 5 uM measured upto 120 mins by LC-MS/MS analysis. Type of series: ADME, cell-free.
Series [3] deals with Trachea. The series is described as follows: In vivo bifunctional antagonist activity at muscarinic M3 receptor /agonist activity at beta-2 adrenoceptor in Dunkin-Hartley guinea pig trachea assessed as time duration for inhibition of carbachol induced contraction measured […]. Type of series: functional, Cavia porcellus.
Series [4] has as its system Trachea. The series is described as follows: In vivo bifunctional antagonist activity at muscarinic M3 receptor /agonist activity at beta-2 adrenoceptor in Dunkin-Hartley guinea pig trachea assessed as inhibition of carbachol induced contraction. The format is functional, tissue-based. Conditions: Cavia porcellus.
Series [5] in a line: Metabolic stability in human lung S9 fraction assessed as half life at 1 uM measured after 0 to 60 mins in presence of NADPH by LC-MS/MS analysis. Type of series: ADME, subcellular. Conditions: time 0-60 min.
Series [6] can be described thus: Metabolic stability in Dunkin-Hartley guinea pig plasma assessed as half life at 5 uM measured upto 120 mins by LC-MS/MS analysis. Type of series: ADME, cell-free, Cavia porcellus.
Series [7] can be described thus: Metabolic stability in rat lung S9 fraction assessed as half life at 1 uM measured after 0 to 60 mins in presence of NADPH by LC-MS/MS analysis. The format is ADME, subcellular. Conditions: time 0-60 min.
A short description of series [8]: Metabolic stability in Dunkin-Hartley guinea pig lung S9 fraction assessed as half life at 1 uM measured after 0 to 60 mins in presence of NADPH by LC-MS/MS analysis. Type of series: ADME, subcellular, Cavia porcellus. Conditions: time 0-60 min.
A short description of series [9]: In vivo antagonist activity at muscarinic M3 receptor in Dunkin-Hartley guinea pig trachea assessed as inhibition of acetylcholine-induced bronchoconstriction at 3 nmol/Kg, IT(Intratracheal) measured after 1 hr in presence of ICI-118551 by Konzett-Roessler methodology relative to control. The format is functional. Conditions: Cavia porcellus.
Series [10] is described as follows: In vivo agonist activity at beta-2 adrenoceptor in Dunkin-Hartley guinea pig trachea assessed as inhibition of histamine-induced bronchoconstriction at 3 nmol/Kg, IT(Intratracheal) measured after 1 hr by Konzett-Roessler methodology relative to control. Conditions: Cavia porcellus. Type of series: functional.
For series [11], the system named is Trachea. The series is described as follows: Bifunctional antagonist activity at muscarinic M3 receptor /agonist activity at beta-2 adrenoceptor in Dunkin-Hartley guinea pig trachea assessed as inhibition of acetylcholine-induced bronchoconstriction at 3 nmol/Kg, IT(Intratracheal) measured after 1 hr by Konzett-Roessler methodology relative to control. Type of series: functional. Conditions: Cavia porcellus.

The nature of series [12]: In vivo antagonist activity at muscarinic M3 receptor in Dunkin-Hartley guinea pig trachea assessed as inhibition of acetylcholine-induced bronchoconstriction at 3 nmol/Kg, IT(Intratracheal) measured after 24 hr in presence of ICI-118551 by Konzett-Roessler methodology relative to control. The format is functional. The note with it: Cavia porcellus.
A short description of series [13]: In vivo agonist activity at beta-2 adrenoceptor in Dunkin-Hartley guinea pig trachea assessed as inhibition of histamine-induced bronchoconstriction at 3 nmol/Kg, IT(Intratracheal) measured after 24 hr by Konzett-Roessler methodology relative to control. Type of series: functional. Conditions: Cavia porcellus.
In series [14] the test system is Trachea. The series can be described thus: Bifunctional antagonist activity at muscarinic M3 receptor /agonist activity at beta-2 adrenoceptor in Dunkin-Hartley guinea pig trachea assessed as inhibition of acetylcholine-induced bronchoconstriction at 3 nmol/Kg, IT(Intratracheal) measured after 24 hr by Konzett-Roessler methodology relative to control. Type of series: functional. The note with it: Cavia porcellus.

Series [15] in a line: In vivo antagonist activity at muscarinic M3 receptor in Dunkin-Hartley guinea pig trachea assessed as inhibition of acetylcholine induced bronchoconstriction at 1 nmol/Kg, IT(Intratracheal) measured after 1 hr in presence of ICI-118551 by Konzett-Roessler methodology relative to control. The format is functional. Conditions: Cavia porcellus.
A short description of series [16]: In vivo antagonist activity at muscarinic M3 receptor in Dunkin-Hartley guinea pig trachea assessed as inhibition of acetylcholine induced bronchoconstriction at 1 nmol/Kg, IT(Intratracheal) measured after 24 hr in presence of ICI-118551 by Konzett-Roessler methodology relative to control. The format is functional. The note with it: Cavia porcellus.
Series [17] can be described thus: In vivo agonist activity at beta-2 adrenoceptor in Dunkin-Hartley guinea pig trachea assessed as inhibition of histamine induced bronchoconstriction at 1 nmol/Kg, IT(Intratracheal) measured after 1 hr by Konzett-Roessler methodology relative to control. The note with it: Cavia porcellus. The format is functional.
A short description of series [18]: In vivo agonist activity at beta-2 adrenoceptor in Dunkin-Hartley guinea pig trachea assessed as inhibition of histamine induced bronchoconstriction at 1 nmol/Kg, IT(Intratracheal) measured after 24 hr by Konzett-Roessler methodology relative to control. Type of series: functional. Conditions: Cavia porcellus.
In series [19] the test system is Trachea. The series can be described thus: Bifunctional antagonist activity at muscarinic M3 receptor /agonist activity at beta-2 adrenoceptor in Dunkin-Hartley guinea pig trachea assessed as inhibition of acetylcholine induced bronchoconstriction at 1 nmol/Kg, IT(Intratracheal) measured after 1 hr by Konzett-Roessler methodology relative to control. The note with it: Cavia porcellus. Type of series: functional.

Series [20] has as its system Trachea. The series can be described thus: Bifunctional antagonist activity at muscarinic M3 receptor /agonist activity at beta-2 adrenoceptor in Dunkin-Hartley guinea pig trachea assessed as inhibition of acetylcholine induced bronchoconstriction at 1 nmol/Kg, IT(Intratracheal) measured after 24 hr by Konzett-Roessler methodology relative to control. Type of series: functional. The note with it: Cavia porcellus.

As for `O=C(NC(c1ccccc1)c1cccc(OCc2ccc(C(=O)OCCCCNC[C@H](O)c3ccc(O)c4[nH]c(=O)ccc34)cc2)c1)O[C@H]1CN2CCC1CC2` (mixture of isomers), the half-life at 5 µM in [1] and in series [2] was under 5 min in each case. In addition, the Time with Trachea [3] is listed as over 270 min. Moreover, in the series with Trachea [4], the IC50 is 0.0794 nM.

With `O=C(N[C@@H](c1ccccc1)c1cccc(OCc2ccc(C(=O)OCCCCNC[C@H](O)c3ccc(O)c4[nH]c(=O)ccc34)cc2)c1)O[C@H]1CN2CCC1CC2`, in [5], the half-life at 1 µM was 26.4 min. Also, the half-life at 5 µM in series [1] was under 5 min; in series [2] it was under 5 min; in series [6], 69.8 min. Besides, in the series on Trachea [3], the Time is listed as over 225 min. The IC50 in the series with Trachea [4] was 0.1 nM.

Turning to `O=C(N[C@@H](c1ccccc1)c1cccc(OCc2ccc(C(=O)OCCCCNC[C@H](O)c3ccc(O)c4[nH]c(=O)ccc34)o2)c1)O[C@H]1CN2CCC1CC2`, the figures for the half-life at 1 µM in [7], in [5] and in series [8] were 120 min, 32 min and over 120 min, respectively. In addition, the figures for the half-life at 5 µM in series [1], in series [2] and in [6] were under 5 min, 7 min and over 120 min, respectively. The inhibition in vivo at 0.003 µmol/kg in series [9] was determined as 73.7%; in [10], 84.5%; with Trachea [11] it was 78.3%; in series [12], 43.5%; in series [13] it was 48.7%; with Trachea [14] it was 60.6%. The Time in the series on Trachea [3] is over 225 min. In the series with Trachea [4], the IC50 was 0.2 nM. The inhibition in vivo at 0.001 µmol/kg was determined as 64.7% in [15]; 9.4% in series [16]; 67.8% in series [17]; 48.9% in [18]; 72% in the series with Trachea [19]; 34.2% in the series on Trachea [20].

Consider `O=C(N[C@H](c1ccccc1)c1cccc(OCc2ccc(C(=O)OCCCCNC[C@H](O)c3ccc(O)c4[nH]c(=O)ccc34)cc2)c1)O[C@H]1CN2CCC1CC2`, for which the half-life at 1 µM in [5] worked out at 16.8 min. Besides, the half-life at 5 µM is under 5 min in series [1], under 5 min in [2] and 46.7 min in series [6]. The Time in the series on Trachea [3] was 180 min. In addition, in the series on Trachea [4], the IC50 was 1.26 nM.

`O=C(N[C@@H](c1ccccc1)c1cccc(OCc2nc(C(=O)OCCCCNC[C@H](O)c3ccc(O)c4[nH]c(=O)ccc34)co2)c1)O[C@H]1CN2CCC1CC2`: the half-life at 1 µM in series [7] was 120 min; in [5], 35 min; in [8], over 120 min. The half-life at 5 µM in series [1] is under 5 min; in series [2] it was under 5 min; in series [6], 77.9 min. The inhibition in vivo at 0.003 µmol/kg in [9] is 96.1%; in series [10], 97.5%; in the series with Trachea [11], 97.2%; in series [12], 37.2%; in series [13] it was 49.9%; with Trachea [14], 58.8%. Further, the Time in the series with Trachea [3] is reported as over 270 min. Further, in the series with Trachea [4], the IC50 is 0.251 nM. In addition, the inhibition in vivo at 0.001 µmol/kg in series [15] stood at 65.5%; in series [16], 23.8%; in series [17], 67.7%; in the series with Trachea [19] it was 70%; in the series on Trachea [20], 31.9%.
